Test results reported in US12527788B2, “Defining RNA-small molecule affinity landscapes enables design of a small molecule inhibitor of an oncogenic non-coding RNA” (University of Florida Research Foundation, Incorporated, priority 2017, dated 2026).

Tests used:
mature miR-18a = assay: RT-qPCR of mature miRNA levels in DU145 cells; type: cell-based; details: Homo sapiens, DU-145, read-out: IC50 for decrease of mature miRNA
Procedure: (§1) In particular, the mature levels of each miRNA in the cluster were studied by RT-qPCR. In agreement with our in vitro Dicer processing studies (FIG. 8A and Figures S-58-S-62), 4 decreases the amount of mature miR-17, -18a, and -20a at low micromolar concentrations with an IC50 of ˜10 µM, but has no effect on miR-19a, -19b, and -92a (FIG. 8B).
(§2) Cell Culture: DU145 cells were cultured in growth medium (Roswell Park Memorial Institute medium (RPMI) supplemented with 10% fetal bovine serum (FBS)) at 37° C. and 5% CO2
(§3) Total RNA was extracted from cells using a Quick-RNA Miniprep Kit (Zymo Research) per the manufacturer's protocol. Approximately 200 ng of total RNA was used in reverse transcription (RT) reactions, which were completed using a miScript II RT kit (Qiagen) per the manufacturer's protocol. RT-qPCR was performed on a 7900HT Fast Real Time PCR System (Applied Biosystem) using power SYBR Green Master Mix (Applied Biosystems). All primer sets were purchased from Integrated DNA Technologies, Inc. (IDT) or Eurofins (Table S1). The expression levels of mature miRNAs were normalized to U6 small nuclear RNA or 18s rRNA.

mature miR-17 = assay: RT-qPCR of mature miRNA levels in DU145 cells; type: cell-based; details: Homo sapiens, DU-145, read-out: IC50 for decrease of mature miRNA
Procedure: as §1, §2, §3

mature miR-20a = assay: RT-qPCR of mature miRNA levels in DU145 cells; type: cell-based; details: Homo sapiens, DU-145, read-out: IC50 for decrease of mature miRNA
Procedure: as §1, §2, §3

4IL8 RNA = assay: Competitive binding assay with 4-FL; details: RNA 4IL8, competitive binding with 4-FL; read-out: Binding affinity
Procedure: (§4) Competitive binding assays were completed by incubating the RNA of interest with 100 nM 4-FL and increasing concentrations of 4. The resulting curves were fit to equation 4:
(§5) [formula] where θ is the percentage of 4-FL bound, [4-FL] is the concentration of 4-FL, Kt is the dissociation constant of RNA and 4-FL, [RNA] is the concentration of RNA, Ct is the concentration of 4, Kd is the dissociation constant for 4, and A is a constant.

4IL1 RNA = assay: Competitive binding assay with 4-FL; details: RNA 4IL1, competitive binding with 4-FL; read-out: Binding affinity
Procedure: as §4, §5

pre-miR-20 = assay: In vitro Dicer inhibition assay; type: biochemical, human; details: low micromolar concentrations
Procedure: (§6) Initial studies were completed in vitro to determine if compound 4 (Targapremir-18a) inhibits Dicer processing of each miRNA separately in the miR-17-92 cluster using radioactively labeled RNA (FIG. 8A). […] Thus, inhibition of Dicer processing by 4 is selective for miR-17, -18a, and -20a and non-selective inhibition of Dicer processing is not observed.
(§7) Dicer Inhibition Assay: The template used for pre-miR-18a (5′-[…] GCTCCTTCTGGCA) (SEQ ID NO: 41) was PCR-amplified in 1×PCR Buffer, 2 μM forward primer (5′-[…]-AAGGTGCATCTAGTGCAGA) (SEQ ID NO: 42), 2 μM reverse primer (5′-[…]) (SEQ ID NO: 43), 4.25 mM MgCl2, 330 μM dNTPs, and 2 μL of Taq DNA polymerase in a 50 μL reaction. Cycling conditions were 95° C. for 30 s, 55° C. for 30 s, and 72° C. for 60 s. […] The samples was then supplemented with 1 mM ATP and 2.5 mM MgCl2. Serially diluted concentrations of 4 were added and the samples were incubated at room temperature for 15 min. Next, 0.005 units/μL of recombinant human Dicer (Genlantis) were added followed by incubation at 37° C. overnight. Reactions were stopped by adding the manufacturer's supplied stop solution.
(§8) A T1 ladder (cleaves G residues) was generated by heating the RNA in 1×RNA Sequencing Buffer (20 mM sodium citrate, pH 5.0, 1 mM EDTA, and 7 M urea) at 55° C. for 10 min followed by slowly cooling to room temperature. RNase T1 was then added to a final concentration of 3, 0.3, 0.03 units/μL and the solution was incubated at room temperature for 20 min. An RNA hydrolysis ladder was generated by incubating RNA in 1×RNA hydrolysis buffer (50 mM NaHCO3, pH 9.4, and 1 mM EDTA) at 95° C. for 5 min. In all cases, cleavage products were separated on a denaturing 15% polyacrylamide gel and imaged using a Bio-Rad PMI phosphorimager.

pre-miR-17 = assay: In vitro Dicer inhibition assay; type: biochemical, human; details: low micromolar concentrations
Procedure: as §6, §7, §8

pre-miR-19b = assay: In vitro Dicer inhibition assay; type: biochemical, human
Procedure: as §6, §7, §8

[1] = test system: 33 mature miRNAs with potential binding sites for 4; assay: Profiling of mature miRNAs with potential binding sites in DU145 cells; type: cell-based, human
Description: We further probed the selectivity of 4 by studying its effect on levels of other mature miRNAs (FIG. 8C) and on pre-miR-17, -18a and -20a. We identified miRNAs with potential binding sites for 4, as determined by HiT-StARTS, using a database of RNA folds in the human miRNA transcriptome,^38 including the 5′G_U/3′CUA bulge common to the Dicer processing sites in miR-17, -18a and -20a (n=33). The potential binding sites for 4 can occur anywhere in the miRNA; that is, they were not confined to Drosha or Dicer processing sites. Other miRNAs that contain the 5′G_U/3′CUA motif have a much lower expression level than miR-17, miR-18a, and miR-20. Studying these RNAs could allow assessment of influence of expression level on compound potency and selectivity, an important consideration in RNA targeting that has largely gone unaddressed.
Collectively, it appears that it is easier to target and inhibit the biogenesis of highly expressed miRNAs than the ones that are of lower expression. Such effects have been well-documented in the protein-targeting community but until now have not been studied in RNA targeting endeavors.
Cell Culture: DU145 cells were cultured in growth medium (Roswell Park Memorial Institute medium (RPMI) supplemented with 10% fetal bovine serum (FBS)) at 37° C. and 5% CO2 […]

IC50 (mature miR-18a): ~10 µM
IC50 (mature miR-17): ~10 µM
IC50 (mature miR-20a): ~10 µM
Kd (4IL8 RNA): 7.5 ± 0.6 µM
Kd (4IL1 RNA): 5.5 ± 1.3 µM
Structure (SMILES): CN1CCN(c2ccc(-c3ccc4nc(-c5cc(C(C)(C)C)c(OCCCC(=O)NCCCN=[N+]=[N-])c(C(C)(C)C)c5)[nH]c4c3)cc2)CC1 [Compound 4]
Inhibition of Dicer processing (pre-miR-20): inhibited Dicer processing
Inhibition of Dicer processing (pre-miR-17): inhibited Dicer processing
Effect on Dicer processing (pre-miR-19b): no effect
Effect on levels of 33 other mature miRNAs [1]: no statistically significant effect
